Measurements from patent US20110262564A1, “Treatment of Cancer with Selenium Nanoparticles” (priority 2010, published 2011).

What was measured:
[1] = tested on: androgen-independent DU145 cells; test: CCK-8 cell viability assay, DU145; assay type: cell-based, human
Procedure: (§1) To determine the cell viability effect of nano-Se in human prostate cancer cells, androgen-dependent LNCaP cells and androgen-independent DU145 cells were treated with 0, 1, 5, 10, 50 and 100 μM of Nano-Se particle suspensions for 24 and 48 hrs respectively.
(§2) LNCaP (Lot#1735217), and DU-145 (Lot#1145858) human prostate cancer cell lines were purchased from the American Type Culture Collection (ATCC, Manassas, Va., USA). Cells were maintained in 1640 culture medium (Invitrogen Life Technologies, USA) supplemented with 10% (v/v) fetal bovine serum and antibiotics.
(§3) For cell viability assay, cells were seeded into 96-well plates at a density of 1×10^4 cells/well, and 40-50% confluent cells were subsequently treated with nano-Se nanoparticles (1 to 100 μM) or distilled water for 24 or 48 hrs respectively. Treated cells were then collected and measured by Cell Counting Kit-8 (CCK-8) system (Dojindo Laboratory, Kumamoto, Japan). Briefly, CCK-8 solution (10 μl per 100 ul of medium in each well) was added, the plates were then incubated at 37° C. for 1 hour, and the absorbance of each well was read at 450 nm using a microplate reader. Values were shown as means±SE of quadruplicated determinations of a representative experiment (repeated three times). Differences between groups were analyzed using Student's test with significance assumed at p<0.05. All statistical analyses were performed using Origin75 software.
Cells were treated with 0-100 μM nano-Se nanoparticles or MSA for 24 and 48 hours. Cells were then collected and cell viabilities were assayed. The data shown are mean±standard of three samples for each treatment. Differences between groups were analyzed using Student's test with significance assumed at p<0.05.

[2] = tested on: human lung carcinoma cell line A549 cells; test: Cell viability assay, A549; assay type: cell-based
Procedure: as §3
(§4) In reference to FIGS. 3A and 3B, 4A and 4B, 5A and 5B, 6A and 6B, the effects of nano-Se nanoparticles on cell viability are compared to that of MSA in androgen dependent prostate cancer line LNCaP cells, androgen independent prostate cancer line DU145 cells, human breast cancer cell line MCF-7 cells, human lung carcinoma cell line A549 cells.
(§5) Cells were treated with 0-100 μM nano-Se nanoparticles or MSA for 24 and 48 hours. […] Differences between groups were analyzed using Student's test with significance assumed at p<0.05.

[3] = tested on: androgen-dependent LNCaP cells; test: CCK-8 cell viability assay, LNCaP; assay type: cell-based, human; details: 0-100 μM, 24 and 48 hours
Procedure: as §1, §2
as §3, with “All statistical analyses were performed using Origin75 software.” left out

[4] = tested on: human breast cancer cell line MCF-7 cells; test: Cell viability assay, MCF-7; assay type: cell-based
Procedure: as §3, §4, §5

androgen receptor [5] = target: T1, androgen receptor (Homo sapiens, UniProt P10275); test: pGL3-PSA-luc androgen receptor luciferase reporter assay in HEK293; assay type: cell-based; details: PSA promoter construct, HEK293, 10 nM
T1 construct: the full length human wild type androgen receptor cDNA expression plasmid pAR0; expressed in transfected cells; host or cells: HEK293
T1 sequence (P10275 1-920): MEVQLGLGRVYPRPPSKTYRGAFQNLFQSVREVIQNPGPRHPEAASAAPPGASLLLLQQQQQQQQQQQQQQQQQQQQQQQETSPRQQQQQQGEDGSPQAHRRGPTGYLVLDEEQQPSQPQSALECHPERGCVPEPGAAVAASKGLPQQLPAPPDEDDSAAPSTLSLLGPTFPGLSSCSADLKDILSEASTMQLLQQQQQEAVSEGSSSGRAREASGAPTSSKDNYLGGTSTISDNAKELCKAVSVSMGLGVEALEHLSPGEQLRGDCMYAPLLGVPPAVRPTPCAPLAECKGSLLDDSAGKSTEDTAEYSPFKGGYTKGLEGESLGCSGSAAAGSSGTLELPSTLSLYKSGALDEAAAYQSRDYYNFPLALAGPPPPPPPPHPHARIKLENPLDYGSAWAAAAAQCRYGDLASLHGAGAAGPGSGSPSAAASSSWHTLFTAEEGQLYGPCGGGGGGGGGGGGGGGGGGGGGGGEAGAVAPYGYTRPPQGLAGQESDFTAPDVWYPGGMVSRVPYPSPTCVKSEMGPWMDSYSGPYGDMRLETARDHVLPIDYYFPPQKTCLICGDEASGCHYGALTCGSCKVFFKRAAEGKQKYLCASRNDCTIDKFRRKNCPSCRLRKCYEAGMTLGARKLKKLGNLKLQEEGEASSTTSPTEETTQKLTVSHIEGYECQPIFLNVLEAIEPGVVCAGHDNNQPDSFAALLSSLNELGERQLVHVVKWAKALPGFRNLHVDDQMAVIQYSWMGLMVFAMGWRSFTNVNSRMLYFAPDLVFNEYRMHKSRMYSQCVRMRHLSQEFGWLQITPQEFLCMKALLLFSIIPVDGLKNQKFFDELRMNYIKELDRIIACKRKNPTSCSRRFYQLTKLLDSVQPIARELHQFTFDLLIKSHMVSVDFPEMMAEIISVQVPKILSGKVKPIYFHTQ
Procedure: (§6) Both MMTV-luc and pGL3-PSA-luc plasmids contain Androgen Receptor binding site which recruits androgen receptor and its co-activator to recruit RNA Pol II to the promoter region.
(§7) Cells were then lysed and assayed for luciferase activity using Dual-Luciferase® Reporter Assay System (Promega, Madison, Wis., USA), the experiment was performed in triplicate and repeated at least four times.

androgen receptor [6] = target: T1, androgen receptor; test: MMTV-luc androgen receptor luciferase reporter assay in HEK293; assay type: cell-based; details: MMTV promoter construct, HEK293, 10 nM
Procedure: as §6, §7

Row | Compound | effect on cell viability ([1]; DU145, 0-100 μM, 24 and 48 hours, dose and time-dependent) | effect on cell viability, MSA versus nano-Se ([1]; DU145, 24 hour treatment, all measured concentrations) | effect on cell viability, nano-Se versus MSA ([1]; DU145, 48 hour treatment) | effect on cell viability ([2]; A549, 0-100 μM, 24 and 48 hours, dose and time-dependent) | potency in decreasing cell viability, MSA versus nano-Se ([2]; A549, 24 and 48 hours) | effect on cell viability [3] | effect on cell viability ([4]; MCF-7, 0-100 μM, 24 and 48 hours, dose and time-dependent) | potency in decreasing cell viability, MSA versus nano-Se ([4]; MCF-7, 24 and 48 hours) | androgen receptor dependent promoter activity (luciferase) (androgen receptor [5]) | androgen receptor dependent promoter activity (luciferase) (androgen receptor [6])
1 | C[Se](=O)O [MSA, Methylseleninic acid] | decreased cell viability | more significant | comparable | decreased cell viability | more potent in decreasing cell viability | decreased cell viability | decreased cell viability | more potent in decreasing cell viability |  | 
2 | C[C@]1(O)CC[C@H]2[C@@H]3CCC4=CC(=O)CCC4=C3C=C[C@@]21C [R1881] |  |  |  |  |  |  |  |  | induced androgen receptor dependent promoter activity | induced androgen receptor dependent promoter activity
